Experimental findings from patent publication US8404673B2, “Carbocyclic GlyT1 receptor antagonists” (Hoffmann-La Roche Inc., priority 2009, dated 2013) are described below.

The target in the first assay is T1, mGlyT-1b (Mus musculus, UniProt P28571).
T1 construct: host or cells: Flp-in-CHO
T1 sequence (P28571 1-651 isoform P28571-2): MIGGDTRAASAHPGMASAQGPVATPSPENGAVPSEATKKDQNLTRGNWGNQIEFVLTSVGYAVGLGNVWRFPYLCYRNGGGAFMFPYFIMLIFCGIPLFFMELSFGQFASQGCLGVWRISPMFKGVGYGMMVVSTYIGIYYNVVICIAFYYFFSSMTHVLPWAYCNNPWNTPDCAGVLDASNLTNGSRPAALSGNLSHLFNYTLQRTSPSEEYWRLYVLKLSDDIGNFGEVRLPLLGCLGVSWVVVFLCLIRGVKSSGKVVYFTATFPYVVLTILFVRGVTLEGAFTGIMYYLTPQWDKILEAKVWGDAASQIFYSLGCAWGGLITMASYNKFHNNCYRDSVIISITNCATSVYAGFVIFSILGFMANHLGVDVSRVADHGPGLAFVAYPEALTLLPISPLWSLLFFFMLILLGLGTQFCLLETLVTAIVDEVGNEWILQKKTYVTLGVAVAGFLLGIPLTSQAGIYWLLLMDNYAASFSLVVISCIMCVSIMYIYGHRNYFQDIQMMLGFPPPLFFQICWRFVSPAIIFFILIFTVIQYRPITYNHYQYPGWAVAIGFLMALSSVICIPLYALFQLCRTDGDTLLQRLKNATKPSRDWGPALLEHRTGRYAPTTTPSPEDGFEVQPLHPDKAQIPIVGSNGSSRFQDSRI
Description: Glycine Uptake Inhibition Assay (mGlyT-1b). Conditions: IC50 data. The class given is cell-based.
The term IC50 denotes the midpoint of a concentration-inhibition curve. In turn, `O=C(NC1CCCC1N1CCCC1)c1c(Cl)cc(C(F)(F)F)cc1Cl` (single isomer, unassigned; (-)) [Example 129, (−)-2,6-Dichloro-N-cis-(2-pyrrolidin-1-yl-cyclopentyl)-4-trifluoromethyl-benzamide] yielded an IC50 of 64.5 nM.
On the same count and under the same terms, with `O=C(NC1CCCC1N1CCCC1)c1c(C2CC2)cc(C(F)(F)F)cc1C(F)(F)F` (single isomer, unassigned; (-)) [Example 138, (−)-2-Cyclopropyl-N-((1R,2, or 1S,2R)-2-pyrrolidin-1-yl-cyclopentyl)-4,6-bis-trifluoromethyl-benzamide] the figure was 67.9 nM; with `CCc1cc(C(F)(F)F)cc(C(F)(F)F)c1C(=O)NC1CCCC1N1CCCC1` (single isomer, unassigned) [Example 142], 68 nM.
Same read-out and setting: with `O=C(N[C@@H]1CCC[C@@H]1N1CCCC1)c1c(F)cc(C(F)(F)F)cc1C(F)(F)F` (single isomer, unassigned) [Example 126, (−)-cis-2-Fluoro-N-(2-pyrrolidin-1-yl-cyclopentyl)-4,6-bis-trifluoromethyl-benzamide] the figure was 74 nM; with `CSc1cc(C(F)(F)F)cc(C(F)(F)F)c1C(=O)N[C@@H]1CCC[C@@H]1N1CCCC1` (single isomer, unassigned) [Example 119, (−)-cis-2-Methylsulfanyl-N-(2-pyrrolidin-1-yl-cyclopentyl)-4,6-bis-trifluoromethyl-benzamide], 65.4 nM; with `Cc1cc(C(F)(F)F)cc(C(F)(F)F)c1C(=O)N[C@H]1CCC[C@H]1N1CCCC1` (relative stereo) [Example 103, cis-2-Methyl-N-(2-pyrrolidin-1-yl-cyclopentyl)-4,6-bis-trifluoromethyl-benzamide], 24.9 nM.
Same read-out and setting: the value for `CCc1cccc(C2CC2)c1C(=O)N[C@H]1CCC[C@H]1N1CCCC1` (racemic) [Example 98, cis-2-Cyclopropyl-6-ethyl-N-(2-pyrrolidin-1-yl-cyclopentyl)-benzamide] was 80.1 nM; that for `COc1cc(C(F)(F)F)cc(Br)c1C(=O)N[C@H]1CCC[C@H]1N1CCCC1` (racemic) [Example 101, 2-Bromo-6-methoxy-N-cis-(2-pyrrolidin-1-yl-cyclopentyl)-4-trifluoromethyl-benzamide] was 94.8 nM.
For `O=C(N[C@H]1CCC[C@H]1N1CCCC1)c1ccc(C(F)(F)F)cc1C(F)(F)F` (single isomer, unassigned) [Example 78, (−)-N-(2-Pyrrolidin-1-yl-cyclopentyl)-2,4-bis-trifluoromethyl-benzamide], the IC50 is 75.4 nM.
The same measure, in the same setting: the value for `COc1cc(C(F)(F)F)cc(Br)c1C(=O)NC1CCCC1N1CCCC1` (single isomer, unassigned; (+)) [Example 115, (+)-2-Bromo-6-methoxy-N-cis-(2-pyrrolidin-1-yl-cyclopentyl)-4-trifluoromethyl-benzamide] was 71.4 nM; that for `COc1cc(C(F)(F)F)cc(SC)c1C(=O)N[C@@H]1CCC[C@@H]1N1CCCC1` (single isomer, unassigned) [Example 58, (−)-2-Methoxy-6-methylsulfanyl-N-(2-pyrrolidin-1-yl-cyclopentyl)-4-trifluoromethyl-benzamide] was 27.6 nM; that for `O=C(NC1CCCC1N1CCCC1)c1ccc(C(F)(F)F)cc1C1CC1` (single isomer, unassigned) [Example 96, (+2-Cyclopropyl-N-cis-(-2-pyrrolidin-1-yl-cyclopentyl)-4-trifluoromethyl-benzamide] was 42.8 nM.
Still for that read-out and setting: with `CCc1cc(C(F)(F)F)cc(C(F)(F)F)c1C(=O)N[C@H]1CCC[C@H]1N1CCCC1` (relative stereo) [Example 137, 2-Ethyl-N-((cis)-2-pyrrolidin-1-yl-cyclopentyl)-4,6-bis-trifluoromethyl-benzamide] the figure was 46.2 nM.

Still in this assay, the particulars now being: read-out: IC50 data.
Take `COc1cc(C(F)(F)F)cc(SC)c1C(=O)N[C@@H]1CCC[C@@H]1NC1CCC1` (single isomer, unassigned) [Example 62, (−)-cis-N-(-2-Cyclobutylamino-cyclopentyl)-2-methoxy-6-methylsulfanyl-4-trifluoromethyl-benzamide]: the IC50 was found to be 31.6 nM.
On the same count and under the same terms, with `CCc1cc(C(F)(F)F)ccc1C(=O)N[C@H]1CCC[C@H]1NC1CCCC1` (single isomer, unassigned) [Example 92, (+)-N-(2-Cyclopentylamino-cyclopentyl)-2-ethyl-4-trifluoromethyl-benzamide] the figure was 95.4 nM; with `O=C(N[C@H]1CCC[C@H]1NC1CCCC1)c1ccc(C(F)(F)F)cc1C1CC1` (racemic) [Example 102, N-((1SR,2RS)-2-Cyclopentylamino-cyclopentyl)-2-cyclopropyl-4-trifluoromethyl-benzamide], 35.1 nM.
